Experimental data reported in ChEMBL document CHEMBL3407463 (Eur J Med Chem, 2014).
The source made the active and inactive calls. The calls are words filed in the database; no cut-off is given here.

What was measured:
[1] = tested on: MCF7; test: Cytotoxicity against human placental microsome aromatase expressing human MCF7 cells at 5 to 15 uM after 2 to 3 days by LDH assay in presence of testosterone; assay type: functional, cell-based
[2] = biological target: T1, Aromatase (Homo sapiens, UniProt P11511); test: Inhibition of human placental microsome aromatase using [1beta-3H] androstenedione as substrate after 15 mins by liquid scintillation counting
T1 sequence (P11511 whole entry): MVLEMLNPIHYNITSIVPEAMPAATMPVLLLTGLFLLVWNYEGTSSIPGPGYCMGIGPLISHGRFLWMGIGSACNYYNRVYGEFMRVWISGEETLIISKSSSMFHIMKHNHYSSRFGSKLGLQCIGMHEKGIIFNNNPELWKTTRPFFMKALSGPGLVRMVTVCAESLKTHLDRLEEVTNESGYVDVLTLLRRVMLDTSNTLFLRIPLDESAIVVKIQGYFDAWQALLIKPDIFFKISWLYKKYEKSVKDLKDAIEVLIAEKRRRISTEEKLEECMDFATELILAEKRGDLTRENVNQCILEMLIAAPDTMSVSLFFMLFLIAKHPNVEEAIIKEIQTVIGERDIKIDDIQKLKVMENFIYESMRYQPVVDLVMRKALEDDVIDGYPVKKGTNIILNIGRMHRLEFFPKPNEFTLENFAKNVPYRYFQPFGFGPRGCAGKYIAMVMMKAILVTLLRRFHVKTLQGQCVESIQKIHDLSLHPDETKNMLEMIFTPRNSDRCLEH

[3] = tested on: MCF7; test: Cytotoxicity against human placental microsome aromatase expressing human MCF7 cells assessed as reduction in cell viability up to 5 uM after 3 to 6 days by MTT assay in presence of estradiol; assay type: functional, cell-based
[4] = tested on: MCF7; test: Cytotoxicity against human placental microsome aromatase expressing human MCF7 cells assessed as reduction in cell viability at 1 to 2.5 uM after 2 days by MTT assay in presence of testosterone; assay type: functional
[5] = biological target: T1, Aromatase; test: Inhibition of human […] aromatase expressed in human MCF7 cells using [1beta-3H] androstenedione as substrate at 10 uM after 1 hr by liquid scintillation counting; assay type: cell-based
[6] = biological target: T1, Aromatase; test: Inhibition of human placental microsome aromatase using [1beta-3H] androstenedione as substrate at 2 uM after 15 mins by liquid scintillation counting; conditions: 0.25 h
[7] = biological target: T1, Aromatase; test: Inhibition of human […] aromatase expressed in human MCF7 cells using [1beta-3H] androstenedione as substrate after 1 hr by liquid scintillation counting; assay type: cell-based
[8] = tested on: MCF7; test: Cytotoxicity against human placental microsome aromatase expressing human MCF7 cells after 2 to 6 days by MTT assay in presence of testosterone; assay type: functional, cell-based
[9] = tested on: MCF7; test: Cytotoxicity against human placental microsome aromatase expressing human MCF7 cells at 0.01 to 15 uM by MTT assay in presence of testosterone; assay type: functional, cell-based; conditions: TDE = time-dependent effect
[10] = tested on: MCF7; test: Cytotoxicity against human placental microsome aromatase expressing human MCF7 cells assessed as reduction in cell viability at 5 to 15 uM after 2 days by MTT assay in presence of testosterone; assay type: functional, cell-based
[11] = tested on: MCF7; test: Cytotoxicity against human placental microsome aromatase expressing human MCF7 cells at 1 to 15 uM after 2 to 6 days by LDH assay in presence of testosterone; assay type: functional, cell-based
[12] = tested on: MCF7; test: Cytotoxicity against human placental microsome aromatase expressing human MCF7 cells at 1 to 15 uM by MTT assay in presence of testosterone; assay type: functional, cell-based; conditions: TDE = time-dependent effect
[13] = tested on: MCF7; test: Cytotoxicity against human placental microsome aromatase expressing human MCF7 cells assessed as reduction in cell viability up to 15 uM after 3 to 6 days by MTT assay in presence of testosterone; assay type: functional, cell-based
[14] = tested on: MCF7; test: Cytotoxicity against human placental microsome aromatase expressing human MCF7 cells assessed as reduction in cell viability up to 15 uM after 3 to 6 days by MTT assay in presence of estradiol; assay type: functional, cell-based

C=C1C[C@@H]2[C@H](CC[C@]3(C)C(=O)CC[C@@H]23)[C@]2(C)C1=CC(=O)[C@@H]1O[C@@H]12
Activity [1]: Active | IC50 [2]: 810 nM | Activity [3]: Active | Activity [4]: <25% | inhibition at 10 µM [5]: 88.6% | inhibition at 2 µM [6]: 86.8% | IC50 [7]: 1180 nM | Activity [8]: Dose-dependent effect | Activity [9]: tde

C=C1C[C@H]2[C@@H]3CC[C@H](O)[C@@]3(C)CC[C@@H]2[C@@]2(C)C=CC(=O)C=C12
Activity [10]: inactive | Activity [4]: Active | Activity [11]: inactive | Activity [8]: Dose-dependent effect | Activity [12]: tde | Activity [13]: Active | Activity [14]: Active

C[C@]12C=CC(=O)C=C1[C@@]1(CO1)C[C@@H]1[C@@H]2CC[C@]2(C)C(=O)CC[C@@H]12
Activity [10]: inactive | IC50 [2]: 620 nM | Activity [4]: Active | inhibition at 10 µM [5]: 95.3% | inhibition at 2 µM [6]: 91.7% | IC50 [7]: 730 nM | Activity [11]: inactive | Activity [8]: Dose-dependent effect | Activity [12]: tde | Activity [14]: Active

C[C@]12C=CC(=O)C=C1C(CO)=C[C@@H]1[C@@H]2CC[C@]2(C)C(=O)CC[C@@H]12
Activity [10]: inactive | IC50 [2]: 670 nM | Activity [4]: Active | inhibition at 10 µM [5]: 84% | inhibition at 2 µM [6]: 81% | IC50 [7]: 980 nM | Activity [11]: inactive | Activity [8]: Dose-dependent effect | Activity [12]: tde | Activity [14]: Active
